Data on 18 molecules can be found in ChEMBL document CHEMBL4396928, “Discovery of Selective, Orally Bioavailable Pyrazolopyridine Inhibitors of Protein Kinase Cθ (PKCθ) That Ameliorate Symptoms of Experimental Autoimmune Encephalomyelitis” (ACS Med Chem Lett, 2019).

SMILES strings stand for the structures. A value given as a limit tells only on which side of the number the result lay.

For data set [1], the species on record is Homo sapiens. The data set can be described thus: Selectivity ratio Ki for recombinant full length PKC delta (unknown origin) to Ki for human recombinant full length His-tagged PKC theta.
The test system of another data set is PBMC. The data set can be described thus: Inhibition of IL-2 secretion from human PBMC cells stimulated with anti-CD3/CD28 measured after 24 hrs by bead-based FLISA. Format: functional, cell-based.
In data set [2] the target is Protein kinase C theta type (Homo sapiens, UniProt Q04759). The data set can be described thus: Inhibition of human recombinant full length His tagged PKC theta expressed in baculovirus using ERMRPRKRQGSVRRRV peptide as substrate incubated for 60 mins in presence of [33P] gammaATP by microbeta liquid scintillation counter.
For data set [3], the species on record is Homo sapiens. The data set can be described thus: Selectivity ratio Ki for recombinant full length PKC alpha (unknown origin) to Ki for human recombinant full length His-tagged PKC theta.
Data set [4] can be described thus: Volume of distribution at steady state in iv dosed rat. It is filed as ADME, organism-based. The settings on record: in vivo, read-out: Vdss.
The nature of data set [5]: Half-life in iv dosed rat. Format: ADME, organism-based. The settings on record: in vivo.
Data set [6] has as its target Protein kinase C delta type (Homo sapiens, UniProt Q05655). The data set can be described thus: Inhibition of recombinant full length PKC delta (unknown origin) using ERMRPRKR- QGSVRRRV peptide as substrate measured after 15 mins in presence of ATP by spectrophotometric analysis.
In data set [7] the target is Rho-associated protein kinase (Homo sapiens, UniProt O75116+Q13464). The data set can be described thus: Inhibition of ROCK (unknown origin) using Myelin Basic Protein as substrate incubated for 60 mins in presence of [33P] gammaATP by microbeta liquid scintillation counter. Format: protein assay.
Data set [8] is described as follows: Unbound hepatic clearance in rat hepatocytes assessed per million cells. It is filed as ADME, cell-based, Hepatocyte.
The target of data set [9] is Tyrosine-protein kinase JAK2 (Homo sapiens, UniProt O60674). The data set can be described thus: Inhibition of JAK2 (unknown origin) using polyE4Y peptide as substrate incubated for 60 mins in presence of [33P] gammaATP by microbeta liquid scintillation counter.
The nature of data set [10]: Unbound hepatic clearance in human hepatocytes assessed per million cells. Format: ADME, cell-based, Hepatocyte.
Data set [11] is described as follows: Efflux ratio of permeability in human Caco2 cells by LC-MS/MS analysis. Format: ADME, cell-based. The settings on record: Caco-2. For orientation: Caco-2 monolayers are a common model of the intestinal barrier.
Data set [12] is described as follows: Permeability across apical to basolateral side in human Caco2 cells measured at 120 mins by LC-MS/MS analysis. Format: ADME, cell-based. The settings on record: Caco-2, read-out: permeability.
The nature of data set [13]: Clearance in iv dosed rat. It is filed as ADME, organism-based. The conditions noted are these: in vivo.
Data set [14] in a line: Dissociation constant, pKa of compound. Format: physicochemical.
A further data set concerns HFL1. The data set can be described thus: Cytotoxicity against human HFL1 cells assessed as growth inhibition measured after 48 hrs by 3H-thymidine incorporation assay. Format: cell-based. In general terms: Uptake of a labelled nucleoside into DNA is a usual measure of proliferation.
The nature of data set [15]: Stability of compound in rat liver microsomes assessed as compound remaining at 30 mins. The settings on record: read-out: Stability. Format: ADME, Microsome. For orientation: Liver microsomes are vesicles of endoplasmic reticulum, rich in cytochrome P450 enzymes.
Data set [16] concerns the target Protein kinase C alpha type (Homo sapiens, UniProt P17252). The data set can be described thus: Inhibition of recombinant full length PKC alpha (unknown origin) using RRRRRKGSFKRKA peptide as substrate measured after 15 mins in presence of ATP by spectrophotometric analysis.
Data set [17] in a line: Stability of compound in human liver microsomes assessed as compound remaining at 30 mins. Format: ADME, Microsome. The conditions noted are these: read-out: Stability.
For data set [18], the target named is Voltage-gated inwardly rectifying potassium channel KCNH2 (Homo sapiens, UniProt Q12809). The data set can be described thus: Inhibition of human ERG.
The nature of data set [19]: Lipophilicity, logD of compound. It is filed as physicochemical. The conditions noted are these: octanol/water.
The target of data set [20] is cAMP-dependent protein kinase catalytic subunit alpha (Homo sapiens, UniProt P17612). The data set can be described thus: Inhibition of protein kinase A (unknown origin) using Kemptide (LRRASLG) as substrate incubated for 15 mins in presence of ATP by spectrophotometric analysis.
For data set [21], the target named is T1, Receptor-type tyrosine-protein kinase FLT3 (Homo sapiens, UniProt P36888).
T1 sequence (P36888 whole entry): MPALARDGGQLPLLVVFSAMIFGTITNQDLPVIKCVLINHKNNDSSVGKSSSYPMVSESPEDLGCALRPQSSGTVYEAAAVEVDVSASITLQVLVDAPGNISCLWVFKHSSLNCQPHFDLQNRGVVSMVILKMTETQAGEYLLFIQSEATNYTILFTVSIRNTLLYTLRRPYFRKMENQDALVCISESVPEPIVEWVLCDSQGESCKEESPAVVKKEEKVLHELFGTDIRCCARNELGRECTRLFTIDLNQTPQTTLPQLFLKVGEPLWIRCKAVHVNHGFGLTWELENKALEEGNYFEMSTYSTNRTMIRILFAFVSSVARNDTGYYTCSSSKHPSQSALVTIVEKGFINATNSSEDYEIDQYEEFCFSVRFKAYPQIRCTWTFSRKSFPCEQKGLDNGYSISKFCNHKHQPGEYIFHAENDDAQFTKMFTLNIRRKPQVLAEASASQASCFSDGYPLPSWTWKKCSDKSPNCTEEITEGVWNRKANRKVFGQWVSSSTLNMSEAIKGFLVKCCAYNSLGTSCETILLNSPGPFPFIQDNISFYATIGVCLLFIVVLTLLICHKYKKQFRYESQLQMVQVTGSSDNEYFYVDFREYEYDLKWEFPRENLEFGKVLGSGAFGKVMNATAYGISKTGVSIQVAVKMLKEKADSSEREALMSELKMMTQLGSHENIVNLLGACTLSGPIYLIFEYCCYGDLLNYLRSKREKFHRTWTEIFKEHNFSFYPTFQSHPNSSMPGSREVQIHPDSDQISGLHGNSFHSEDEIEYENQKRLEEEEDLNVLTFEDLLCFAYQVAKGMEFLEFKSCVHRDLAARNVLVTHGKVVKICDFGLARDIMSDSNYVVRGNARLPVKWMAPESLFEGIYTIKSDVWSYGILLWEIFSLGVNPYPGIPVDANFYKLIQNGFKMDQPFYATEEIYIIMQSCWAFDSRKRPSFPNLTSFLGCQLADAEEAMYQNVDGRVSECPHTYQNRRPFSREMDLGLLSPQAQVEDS
The data set can be described thus: Inhibition of FLT3 (unknown origin) using polyE4Y peptide as substrate incubated for 60 mins in presence of [33P] gammaATP by microbeta liquid scintillation counter.

Protein kinase C delta type, sequence (Q05655 whole entry): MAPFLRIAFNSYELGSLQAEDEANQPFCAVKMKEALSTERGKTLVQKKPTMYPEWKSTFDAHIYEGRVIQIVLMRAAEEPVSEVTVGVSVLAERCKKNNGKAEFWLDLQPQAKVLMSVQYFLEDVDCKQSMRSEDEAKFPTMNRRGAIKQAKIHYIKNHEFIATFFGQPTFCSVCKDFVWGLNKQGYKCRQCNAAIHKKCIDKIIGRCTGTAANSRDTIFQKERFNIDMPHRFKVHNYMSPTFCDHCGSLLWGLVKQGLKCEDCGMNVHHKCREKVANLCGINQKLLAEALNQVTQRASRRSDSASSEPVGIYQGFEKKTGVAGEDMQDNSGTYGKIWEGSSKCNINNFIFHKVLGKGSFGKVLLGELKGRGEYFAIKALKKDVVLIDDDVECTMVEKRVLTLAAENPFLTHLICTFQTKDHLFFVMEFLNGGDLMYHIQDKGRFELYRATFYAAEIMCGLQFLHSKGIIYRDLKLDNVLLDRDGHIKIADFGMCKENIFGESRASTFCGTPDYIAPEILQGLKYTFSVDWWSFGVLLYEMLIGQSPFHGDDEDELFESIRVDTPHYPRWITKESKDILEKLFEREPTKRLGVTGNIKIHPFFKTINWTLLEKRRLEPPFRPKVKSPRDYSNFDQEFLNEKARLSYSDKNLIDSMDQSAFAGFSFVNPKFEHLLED
Protein kinase C theta type, sequence (Q04759 whole entry): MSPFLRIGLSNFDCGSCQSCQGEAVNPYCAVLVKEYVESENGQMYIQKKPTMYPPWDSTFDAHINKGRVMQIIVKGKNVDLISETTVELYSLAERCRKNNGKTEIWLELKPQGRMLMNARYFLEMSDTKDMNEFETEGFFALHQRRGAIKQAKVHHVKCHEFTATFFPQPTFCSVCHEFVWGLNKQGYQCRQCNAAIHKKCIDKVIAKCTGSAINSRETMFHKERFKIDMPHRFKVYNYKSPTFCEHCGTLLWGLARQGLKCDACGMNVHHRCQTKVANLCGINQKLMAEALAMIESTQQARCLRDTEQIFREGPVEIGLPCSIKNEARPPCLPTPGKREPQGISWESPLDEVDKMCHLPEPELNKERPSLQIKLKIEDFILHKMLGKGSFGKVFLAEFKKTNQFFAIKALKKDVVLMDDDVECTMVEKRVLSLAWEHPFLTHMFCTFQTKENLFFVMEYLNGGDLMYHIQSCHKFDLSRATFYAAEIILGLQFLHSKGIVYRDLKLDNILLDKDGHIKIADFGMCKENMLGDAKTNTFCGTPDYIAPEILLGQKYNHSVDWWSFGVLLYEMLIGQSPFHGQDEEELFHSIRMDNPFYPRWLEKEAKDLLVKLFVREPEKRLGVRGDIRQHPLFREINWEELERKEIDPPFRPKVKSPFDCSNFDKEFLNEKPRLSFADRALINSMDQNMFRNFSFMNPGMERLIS
Voltage-gated inwardly rectifying potassium channel KCNH2, sequence (Q12809 whole entry): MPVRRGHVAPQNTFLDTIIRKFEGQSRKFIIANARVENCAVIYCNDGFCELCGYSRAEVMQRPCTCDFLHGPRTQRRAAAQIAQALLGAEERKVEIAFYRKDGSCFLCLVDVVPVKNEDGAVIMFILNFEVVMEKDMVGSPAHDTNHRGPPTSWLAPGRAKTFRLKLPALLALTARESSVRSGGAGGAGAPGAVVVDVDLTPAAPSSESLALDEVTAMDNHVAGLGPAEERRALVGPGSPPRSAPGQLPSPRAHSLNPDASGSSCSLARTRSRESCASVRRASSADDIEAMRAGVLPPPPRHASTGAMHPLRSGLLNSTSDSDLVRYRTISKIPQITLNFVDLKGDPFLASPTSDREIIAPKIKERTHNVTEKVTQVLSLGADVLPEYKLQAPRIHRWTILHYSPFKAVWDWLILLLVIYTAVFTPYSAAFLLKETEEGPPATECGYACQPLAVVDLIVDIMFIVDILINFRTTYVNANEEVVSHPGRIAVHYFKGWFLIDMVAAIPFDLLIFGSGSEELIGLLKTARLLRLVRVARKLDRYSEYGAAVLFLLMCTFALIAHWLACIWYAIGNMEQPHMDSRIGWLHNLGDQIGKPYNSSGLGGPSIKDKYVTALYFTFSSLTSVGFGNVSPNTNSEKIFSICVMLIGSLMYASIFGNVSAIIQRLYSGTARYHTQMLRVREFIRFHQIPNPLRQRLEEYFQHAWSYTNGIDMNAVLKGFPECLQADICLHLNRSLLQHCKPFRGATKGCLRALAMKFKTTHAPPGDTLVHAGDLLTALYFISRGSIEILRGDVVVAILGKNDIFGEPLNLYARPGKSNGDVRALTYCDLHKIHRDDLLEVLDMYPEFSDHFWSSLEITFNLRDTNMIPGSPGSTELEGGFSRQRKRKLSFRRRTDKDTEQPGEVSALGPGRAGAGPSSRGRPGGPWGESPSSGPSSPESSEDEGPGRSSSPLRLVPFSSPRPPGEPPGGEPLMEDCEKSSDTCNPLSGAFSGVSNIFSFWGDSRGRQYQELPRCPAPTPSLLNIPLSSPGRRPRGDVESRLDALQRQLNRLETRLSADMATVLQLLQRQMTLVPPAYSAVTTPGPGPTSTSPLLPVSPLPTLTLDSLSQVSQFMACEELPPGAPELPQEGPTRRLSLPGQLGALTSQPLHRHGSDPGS
Tyrosine-protein kinase JAK2, sequence (O60674 whole entry): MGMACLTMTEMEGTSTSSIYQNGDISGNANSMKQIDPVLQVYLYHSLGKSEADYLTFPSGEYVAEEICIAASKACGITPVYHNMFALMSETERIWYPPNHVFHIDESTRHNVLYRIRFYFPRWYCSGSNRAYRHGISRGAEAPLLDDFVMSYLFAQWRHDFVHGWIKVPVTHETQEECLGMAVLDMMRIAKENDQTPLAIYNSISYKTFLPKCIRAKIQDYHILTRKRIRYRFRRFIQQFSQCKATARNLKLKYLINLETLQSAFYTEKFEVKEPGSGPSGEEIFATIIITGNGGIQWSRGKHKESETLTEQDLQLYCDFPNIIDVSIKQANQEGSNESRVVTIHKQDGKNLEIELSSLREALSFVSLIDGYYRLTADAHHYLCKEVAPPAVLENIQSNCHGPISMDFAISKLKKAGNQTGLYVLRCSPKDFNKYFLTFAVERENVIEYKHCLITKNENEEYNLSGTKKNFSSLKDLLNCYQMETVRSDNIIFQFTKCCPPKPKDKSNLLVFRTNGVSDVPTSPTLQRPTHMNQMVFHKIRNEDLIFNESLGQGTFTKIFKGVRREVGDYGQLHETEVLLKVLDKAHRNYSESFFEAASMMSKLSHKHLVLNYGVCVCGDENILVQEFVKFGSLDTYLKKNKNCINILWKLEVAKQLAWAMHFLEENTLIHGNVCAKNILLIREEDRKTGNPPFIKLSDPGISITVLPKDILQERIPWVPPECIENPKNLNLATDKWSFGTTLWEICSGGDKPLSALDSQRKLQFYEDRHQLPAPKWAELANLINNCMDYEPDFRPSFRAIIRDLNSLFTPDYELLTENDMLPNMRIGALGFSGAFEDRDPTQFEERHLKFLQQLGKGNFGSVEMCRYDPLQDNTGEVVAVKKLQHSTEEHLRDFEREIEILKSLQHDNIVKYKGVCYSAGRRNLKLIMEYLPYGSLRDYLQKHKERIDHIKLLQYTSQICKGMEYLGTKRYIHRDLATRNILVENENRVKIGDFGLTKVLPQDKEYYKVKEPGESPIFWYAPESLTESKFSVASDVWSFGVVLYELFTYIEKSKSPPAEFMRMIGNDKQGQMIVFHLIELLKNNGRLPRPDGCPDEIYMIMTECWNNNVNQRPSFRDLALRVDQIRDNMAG

Consider `NCC1(c2cccc(-c3ccnc4[nH]ncc34)c2)CCOCC1`, for which the Ratio Ki in the data set listed under Homo sapiens [1] turned out to be 111; in the data set filed under Homo sapiens [3], 93. In the data set with PBMC, this molecule showed an IC50 of 550 nM. Besides, the Ki in data set [2] is 9 nM.
Regarding `CC(C)(C#N)c1cccc(-c2ccnc3[nH]ncc23)c1`, the Vd in data set [4] was 0.94 L/kg. The same molecule showed a half-life in [5] of 4.6 h. Also, the Ki in data set [2] is 28 nM; in data set [6], 584 nM; in data set [7], 560 nM; in [9] it was 270 nM. Further, the CL free in data set [8] is 58 µL/min; in [10] it was 172 µL/min. Further, in data set [11], the efflux ratio was found to be 0.7. For the same molecule, the Papp A→B at 2 h in data set [12] came to 36 ×10⁻⁶ cm/s. Moreover, the clearance in data set [13] is 12 mL/min/kg.
With `NCC1(c2cccc(-c3ccnc4[nH]ncc34)c2)CCC1`, the Ratio Ki was found to be 18 in the data set filed under Homo sapiens [1] and 41 in the data set listed under Homo sapiens [3]. Further, half-maximal inhibition in the data set on PBMC (IC50) was put at 300 nM. In addition, in [2], the Ki stood at 17 nM.
On to `C#CCC(C)(CN)c1cccc(-c2ccnc3[nH]ncc23)c1` (centres undefined), for which the Ratio Ki in the data set filed under Homo sapiens [1] is 36; in the data set filed under Homo sapiens [3] it was 149. Also, in the data set with PBMC, the IC50 stood at 20 nM. The Ki in data set [2] came out at 0.2 nM.
`NCC1(c2cccc(-c3ccnc4[nH]ncc34)c2)CCCC1`: the Ratio Ki in the data set filed under Homo sapiens [1] is 18; in the data set listed under Homo sapiens [3], 28. In addition, the 50% inhibitory concentration (IC50) with PBMC amounted to 350 nM. Further, the Ki in data set [2] was 22 nM.
Regarding `NCC1(c2cccc(-c3ccnc4[nH]nc(C(F)(F)F)c34)c2)CCC1`, the pKa in data set [14] was determined as 8.8. For the same molecule, the half-inhibitory concentration (IC50) is 90 nM in the data set on PBMC, 1900 nM in the data set with HFL1 and 3000 nM in data set [18]. Besides, the inhibition constant (Ki) in data set [2] was found to be 2 nM; in data set [16] it was 57 nM; in data set [6], 60 nM. Further, the remaining at 0.5 h stood at 88% in data set [15] and 81% in data set [17].
For `CCC(C)(CN)c1cccc(-c2ccnc3[nH]ncc23)c1` (centres undefined), the Ratio Ki is 13 to 24 in the data set filed under Homo sapiens [1] and 37 in the data set listed under Homo sapiens [3]. For the same molecule, the midpoint of inhibition with PBMC, the IC50, lay at 170 nM. Moreover, the Ki in data set [2] came to 3 nM.
In the same order, the values of `NCC1(c2cccc(-c3ccnc4[nH]ncc34)c2)CCCCC1` are 8, 18, 580 nM and 30 nM.
In the same order, the values of `CC(C)(CN)c1cccc(-c2ccnc3[nH]ncc23)c1` are 16, 50, 330 nM and 12 nM.
For the molecule `CC(C)(C#N)c1cccc(-c2ccnc3[nH]ncc23)n1`, the Vd in [4] was 1.22 L/kg. The molecule further gave a half-life in data set [5] of 2.5 h. Moreover, the Ki came to 14 nM in [2]; 465 nM in [16]; 240 nM in data set [6]; 210 nM in data set [7]; 86 nM in data set [9]. The values for the CL free in data set [8] and in [10] were 24 µL/min and 33 µL/min, respectively. The same molecule showed a pH-dependent lipophilicity (logD) in data set [19] of 2.9. Further, in data set [11], the efflux ratio was found to be 0.95. In addition, the Papp A→B at 2 h in data set [12] amounted to 20.1 ×10⁻⁶ cm/s. The same molecule came in with a clearance in data set [13] of 22 mL/min/kg.
For the molecule `CCC(C)(CN)c1cccc(-c2ccnc3[nH]nc(Cl)c23)c1` (centres undefined), the Ratio Ki in the data set filed under Homo sapiens [1] is 22. Moreover, the IC50 in the data set with PBMC came to 20 nM. In addition, the Ki in data set [2] worked out at 0.3 nM.
On to `CCCc1cc(-c2ccnc3[nH]ncc23)cc(C(C)(CC)CN)c1` (centres undefined), for which the Ratio Ki in the data set filed under Homo sapiens [1] turned out to be 39. This molecule also came in with an IC50 in the data set on PBMC of 200 nM. For the same molecule, the Ki in [2] came to 32 nM.
For the molecule `CCc1cc(-c2ccnc3[nH]ncc23)cc(C(C)(CC)CN)c1` (centres undefined), the Ratio Ki in the data set listed under Homo sapiens [1] worked out at 39. This molecule also yielded an IC50 in the data set with PBMC of 250 nM. In addition, the Ki in data set [2] was 14 nM.
For `CCC(C)(C#N)c1cccc(-c2ccnc3[nH]ncc23)c1` (centres undefined), in the data set with PBMC, inhibition was half-maximal at 2700 nM (IC50). The Ki in [2] was found to be 72 nM.
`CCC(C)(CN)c1cccc(-c2ccnc3[nH]nc(C)c23)c1` (centres undefined): the Ratio Ki in the data set listed under Homo sapiens [1] was more than 16. The IC50 with PBMC is 100 nM. Besides, the Ki in data set [2] was less than 1 nM.
For the molecule `CCC(C)(CN)c1cccc(-c2ccnc3[nH]nc(C(F)(F)F)c23)c1` (centres undefined), in the data set filed under Homo sapiens [1], the Ratio Ki worked out at 25. Besides, half-maximal inhibition with PBMC (IC50) required 10 nM. Besides, the Vd in data set [4] is 2.7 L/kg. In [5], this molecule had a half-life of 1.8 h. Further, the inhibition constant Ki in [2] was found to be 0.4 nM. The clearance in data set [13] worked out at 45 mL/min/kg.
Turning to `NCC1(c2cccc(-c3ccnc4[nH]nc(C(F)(F)F)c34)c2)CCOCC1`, the values for the IC50 (in the data set with PBMC; with HFL1; in [18]) were 130 nM, 3300 nM and more than 10000 nM, respectively. Besides, the inhibitory constant (Ki) stood at 9 nM in [2]; 468 nM in data set [16]; 184 nM in [6]; 30 nM in data set [20]; 46 nM in data set [21]. Moreover, the results for the remaining at 0.5 h in data set [15] and in data set [17] were 65% and 96%, respectively.
In the case of `CCC(C)(CN)c1cc(C)cc(-c2ccnc3[nH]ncc23)c1` (centres undefined), the Ratio Ki in the data set listed under Homo sapiens [1] amounted to 24. In addition, the IC50 in the data set on PBMC turned out to be 260 nM. Moreover, in data set [2], the Ki stood at 5 nM.

By IC50 is commonly meant the point on the concentration scale where inhibition reaches its midpoint. A word on the Ki: it is a measure of affinity in units of concentration, obtained from inhibition or displacement. As usually defined, the half-life is the time needed for the level to fall by half in the phase considered. A high value points to slow loss. Usually efflux ratio stands for the permeability from basolateral to apical divided by that in the opposite direction, in the common usage. Usually clearance stands for the rate of elimination divided by the concentration. For orientation: pKa means the negative logarithm of the acid dissociation constant. Low values mean a group that gives up its proton readily, high ones a group that holds its proton tightly. As a reminder, the logD is lipophilicity at a set pH, counting ionised and neutral species. A higher logD goes with a more lipophilic compound.
